HELM strings list units from the 5' end as sugar, base in round brackets, then linkage (d deoxyribose, r ribose, m 2'-O-methyl, p phosphodiester). Strings are as the collection lists them; they lack the last nucleoside at the 3' end of the tested compound. [moe] = 2'-O-(2-methoxyethyl) (MOE); [sp] = phosphorothioate linkage; [m5C] = 5-methylcytosine

The target of this data set is UBE3A-ATS. Nature of the data set: mouse, dose not given. The note with it: ASO.
“RNA1{[moe]([m5C])[sp].[moe](G)p.[moe](G)p.[moe](G)p.[moe]([m5C])p.d(T)[sp].d(A)[sp].d(T)[sp].d(G)[sp].d(T)[sp].d(G)[sp].d(A)[sp].d(G)[sp].d(A)[sp].d(T)[sp].[moe](A)p.[moe](A)p.[moe](T)[sp].[moe](T)}$$$$ (last 3' nucleoside missing)”: the 3 h FOB score is 4 score 0-7.

Substance “RNA1{[moe](G)[sp].[moe](T)p.[moe](G)p.[moe](T)p.[moe](T)p.d(T)[sp].d(A)[sp].d(T)[sp].d([m5C])[sp].d([m5C])[sp].d(A)[sp].d(A)[sp].d(A)[sp].d([m5C])[sp].d([m5C])[sp].[moe](A)p.[moe](A)p.[moe](G)[sp].[moe](G)}$$$$ (last 3' nucleoside missing)” came in with a 3 h FOB score of 3 score 0-7.

Substance “RNA1{[moe](A)[sp].[moe](T)p.[moe](G)p.[moe](A)p.[moe]([m5C])p.d(A)[sp].d(T)[sp].d(A)[sp].d(A)[sp].d([m5C])[sp].d([m5C])[sp].d(A)[sp].d(T)[sp].d(A)[sp].d(T)[sp].[moe](A)p.[moe]([m5C])p.[moe](A)[sp].[moe](A)}$$$$ (last 3' nucleoside missing)” had a 3 h FOB score of 0 score 0-7.

Substance “RNA1{[moe]([m5C])[sp].[moe](A)p.[moe](G)p.[moe](T)p.[moe](A)p.d(T)[sp].d([m5C])[sp].d(T)[sp].d(T)[sp].d(A)[sp].d(A)[sp].d([m5C])[sp].d(T)[sp].d(G)[sp].d(G)[sp].[moe](T)p.[moe](G)p.[moe](A)[sp].[moe](A)}$$$$ (last 3' nucleoside missing)” returned a 3 h FOB score of 1 score 0-7.

For “RNA1{[moe](T)[sp].[moe](G)p.[moe]([m5C])p.[moe](A)p.[moe](T)p.d(A)[sp].d([m5C])[sp].d([m5C])[sp].d([m5C])[sp].d(A)[sp].d(G)[sp].d(G)[sp].d(G)[sp].d(T)[sp].d(A)[sp].[moe](G)p.[moe](G)p.[moe](A)[sp].[moe](T)}$$$$ (last 3' nucleoside missing)”, the 3 h FOB score turned out to be 2 score 0-7.
